Our source for the melting point values is a melting point compilation (Tetko et al.; mined from patent text by program, amines drawn as free bases though some values may be those of a salt).

Molecules are shown by their SMILES. Residues, ends and D or L forms follow the SMILES beside them. *: point of attachment. ONp = O=[N+]([O-])c1ccc(O*)cc1; Boc = CC(C)(C)OC(=O)*; OBn = c1ccc(CO*)cc1; βAla = NCCC(=O)O Bounds are passed on as bounds.

For orientation: melting point means the temperature of the solid-liquid transition. The molecule `Cn1nc(-c2ccc3ccccc3c2)n(C)c1=S` gave a melting point of 173 to 175 °C.

Take `O=C(O)Cc1ccc(C(=O)c2ccccc2)cc1[N+](=O)[O-]`: the melting point was in the range of 168 to 170 °C.

Regarding `Nc1noc2cc3c(cc12)C1(CO3)C(=O)N(CC2CCCO2)c2ccccc21` (configuration not stated), the melting point was 116 to 119 °C. Under `C#Cc1ccc2c(c1)C=C(C(=O)O)C(C(F)(F)F)N2` (configuration not stated) stands 259 to 268 °C; under `NC(=O)c1ccc(Cl)c([N+](=O)[O-])c1N1CC1`, 216 °C. `CN(C)CC/C=C/c1ccc2c(Nc3ccc(Sc4nccn4C)c(Cl)c3)c(C#N)cnc2c1` registered a melting point of 191 to 198 °C. As for `COCCN(CCOC)C1CCN(c2ccc(NC(=O)c3cnn(-c4ccc(Cl)cc4)c3C)cc2C#N)CC1`, the melting point amounted to 152 °C. Under `Oc1ccc(OCc2ccccc2)c2ccccc12` stands 118 to 119 °C; under `COc1ccc(N2CCN(n3cnn(C)c3=O)CC2)cc1`, 178 °C; under `Cc1nc(NC(=O)NS(=O)(=O)c2ccccc2[N+](=O)[O-])nc2c1CCC2`, 202 to 205 °C.

`CC(C)NC(=O)C1OC1c1ccccc1` (configuration not stated) had a melting point of 114 to 115 °C. `Oc1ccc(-c2ccc(-c3ccc(O)cc3)c(-c3ccc(OCCN4CCCC4)cc3)n2)cc1` had a melting point of 145 to 150 °C. Molecule `O=C(O)c1ccc(C2(C(=O)Oc3ccc(C(=O)NO)cc3)CCCCC2)cc1` yielded a melting point of 169 to 170 °C. In the case of `Cc1c(C)c2c(c(C)c1NC(=O)CCC(F)(F)F)C(c1ccc(C(C)C)cc1)CO2` (configuration not stated) it was 206 to 207 °C. For the molecule `CCc1nn(CCNC(=O)OC(C)(C)C)c(CN)c1Oc1cc(Cl)cc(Cl)c1`, the melting point was in the range of 112 to 114 °C. In turn, `O=S(=O)(NCCO)c1c[nH]c(-c2ccc(Cl)cc2)n1` gave a melting point of 210 to 212 °C. Consider `CN(C)Cc1ccccc1-c1ccc(Br)cc1`, for which the melting point fell in the range of 60 to 62 °C. With `CC(C)(C)C(=O)N[C@@H](Cc1ccccc1)C(=O)N[C@@H](Cc1ccccc1)C(=O)NC(CO)Cc1c[nH]cn1` (some centres not stated), the melting point fell in the range of 124 to 130 °C. `CCOC(=O)C(=O)Nc1c([N+](=O)[O-])sc2ccc(F)cc12` returned a melting point of 129 to 131 °C. In the case of `CC(C)OC(=O)Cn1c(=O)n(C)c(=O)n(-c2cc(N=c3oc(=O)n4n3CCCC4)c(F)cc2Cl)c1=O`, the melting point fell in the range of 115 to 120 °C.

Take `CC(C)(C)NC(=O)C(C)(C)N(OC(C)(C)C#N)C(C)(C)C`: the melting point fell in the range of 77 to 79 °C. With `COc1cc(-c2cc(=O)c3ccccc3o2)cc([N+](=O)[O-])c1OC`, the melting point lay in the range of 216 to 217 °C. The molecule `O=C1c2ccccc2C(=O)N1CCCCN1CCN(C(c2ccccc2)c2ccccc2)CC1` gave a melting point of 125 to 129 °C. Take `CC(C)OC(=O)CSc1ncnc2c(O)n(C)nc12`: the melting point lay in the range of 192 to 194 °C.

On to `COc1c(C(O)CNC(C)(C)Cc2ccccc2C)ccc(O)c1O` (configuration not stated), for which the melting point stood at 114 °C. Consider `Cc1ccc(S(=O)(=O)NC(C)(C)C)s1`, for which the melting point stood at 89 °C. Consider `Cc1ccc(Cc2ccc3nc(N)sc3c2)s1`, for which the melting point was 179 to 181 °C. Take `CCOc1cc2nc(NC)nc(-c3cccc(-c4cncc(SC)c4)c3)c2cc1OCC`: the melting point fell in the range of 105 to 107 °C.

`Cc1ccc(S(=O)(=O)N2CCC(Sc3ccccc3)CC2)cc1` showed a melting point of 105 to 108 °C. Turning to `CC(C)(C)OC(=O)NC[C@H]1CC[C@H](NC(=O)OCc2ccccc2)CC1`, the melting point lay in the range of 130 to 131 °C. In the case of `O=c1c2cccc3c2n(c(=O)n1CC(O)CO)-c1cc(C(F)(F)F)ccc1S3(=O)=O` (configuration not stated) it was 223 to 226 °C; in that of `CN(C)C(=O)c1cc2c(nc(C(F)(F)F)n2C)c2c1CCC(c1ccccc1)O2` (configuration not stated), 223 to 225 °C. As to `CCCN1CCC(c2ccccc2)=C(C(=O)NCC)C1`, the melting point is 80 to 83 °C. In the case of `N#Cc1ncn2c1[C@@H]1CCN1C(=O)c1c(Br)cccc1-2` it was 133 to 136 °C; in that of `CCOC(=O)C(CO)NC(=O)C(CC(=O)OCc1ccccc1)NC(=O)CCNC(=O)OC(C)(C)C` (configuration not stated) ({Boc-βAla}-Asp(OBn)-Ser-OEt; configuration not given here), 132 to 134 °C. With `N#CCc1ccc(OCc2ccccc2)c(OCc2ccccc2)c1CCc1cccc(OCc2ccccc2)c1`, the melting point was 90 °C. In the case of `CC(C)c1cccc(C(C)C)c1NC(=S)NC1CCCC(C(F)(F)F)C1` (configuration not stated) it was 67 to 75 °C. On to `CCNc1cc(C(=O)O)cc(S(N)(=O)=O)c1Oc1ccccc1`, for which the melting point lay within 236 to 237 °C. The molecule `COc1cccc(N(C)C(=O)C(C)Br)c1` (configuration not stated) showed a melting point of 55 to 56 °C.

As to `COc1cc(N)c(Cl)cc1C(=O)N[C@H]1CCN(Cc2cccnc2)C[C@H]1OC` (relative stereo), the melting point stood at 189 °C. `COc1cc(O)ccc1OCc1ccccc1` showed a melting point of 84 °C.

The molecule `COc1cc(N)c(Cl)cc1C(=O)NCC1CCN(CCCS(=O)(=O)Cc2ccccc2)CC1` had a melting point of 166 to 168 °C.

The molecule `CC(=O)Nc1ccc(CCNc2nc(C)nc3sc(C)cc23)cc1` displayed a melting point of 248 °C. `Cc1oc(-c2ccc(Cl)cc2)cc1C(=O)Nc1cc(Cl)ccc1-c1noc(=O)[nH]1` displayed a melting point of 248 to 251 °C.

Take `O=C(CC1=NCCN1)N1CCOc2ccc(S(=O)(=O)c3ccccc3)cc21`: the melting point was 114 to 116 °C. Molecule `C=CC(=O)OC1(C)CCCC2C3C=CC(C3)C21` (configuration not stated) had a melting point of 41 to 42 °C.

The molecule `CC(C)C(NC(=O)NCc1ccccn1)C(=O)NC(Cc1ccccc1)C(O)C(Cc1ccccc1)NC(=O)C(NC(=O)NCc1ccccn1)C(C)C` (configuration not stated) returned a melting point of 198 to 199 °C. Molecule `CC1CC(=O)NN=C1c1ccc(-n2cnc3c2CCCC3)nc1` (configuration not stated) registered a melting point of 234 to 235 °C. The molecule `Oc1cc(N2CCCCC2)c(Cl)cc1CCBr` came in with a melting point of 115 to 116 °C. For `CCOC(=O)c1cc2cc(NC(=O)OCc3ccccc3)ccc2nn1`, the melting point worked out at 205 °C. Under `O=C(CCN1CCN(c2ncc(F)cn2)CC1)Cc1ccc(F)c2ccccc12` stands 119 to 120 °C; under `CC(C)(C)OC(=O)NC(=O)C(N)OCc1ccccc1` (configuration not stated), 115 to 120 °C; under `CC(=NNC(=O)c1cccc(C(F)(F)F)c1)c1cccnc1`, 183 °C. `CC(C)(C)[C@H]1CC[C@H](CC2=C(Cl)C(=O)c3ccccc3C2=O)CC1` yielded a melting point of 154 to 156 °C. `OCc1cc(O)cc(Nc2c3ccccc3nc3ccccc23)c1`: the melting point lay within 201 to 202 °C. In the case of `CCOC(=O)c1cnc2cc([N+](=O)[O-])ccc2n1` it was 221 to 223 °C; in that of `CCOc1ccnc(F)c1`, 35 to 36 °C. In turn, `O=S(=O)(c1ccc(O)cc1)c1ccc(-c2ccccc2)cc1` gave a melting point of 246 to 248 °C. The molecule `CCOC(=O)Cc1ccc(-n2cccn2)cc1` registered a melting point of 49 °C. `O=S1(=O)CS(=O)(=O)OCCO1` came in with a melting point of 176 to 180 °C. Molecule `CCCc1c(S(=O)CCCOc2ccc(C(C)=O)c(OCCCC(=O)OCC)c2CCC)ccc(C(C)=O)c1O` (configuration not stated) showed a melting point of 74 to 76 °C.

On to `CCOC1CC2(C)C(CCC3C4CC=CC4(C)CC(N(C)C)C32)CC1O` (configuration not stated), for which the melting point is 51 to 54 °C.

As to `NC(=O)c1ccc(F)c2c1CC(N(CCCCc1c[nH]c3ccc(F)cc13)CC1CC1)CO2` (configuration not stated), the melting point was found to be 115 °C. Take `Cc1nc2c3c(c(C(=O)N(C)C)cc2[nH]1)CCC1(Cc2ccccc2C1)N3`: the melting point was found to be 183 °C. Under `CC(=NO)C(C)(C)NCCCNC(C)(C)C(COCC(O)Cn1ccnc1[N+](=O)[O-])=NO` (configuration not stated) stands 72 to 73 °C; under `C[C@]12CC[C@H](O)CC1=CCC1C2CC[C@@]2(C)C1CC[C@@H]2c1c[nH]nn1` (some centres not stated), 275 to 277 °C; under `O=C(O)c1cc(-c2ccccc2)cc2c(-c3ccccc3)c([N+](=O)[O-])oc12`, 207 to 209 °C. In turn, `CCn1c(=O)c2[nH]c(C(C)C)nc2n(Cc2ccc(OC)c(OC)c2)c1=O` displayed a melting point of 198 to 201 °C. Molecule `O=C(N=C1SCCN1Cc1ccc(Cl)nc1)c1ccccc1` came in with a melting point of 133 °C. Molecule `CN1C(=O)CC[C@]2(C)c3ccc(-c4ccc(S(C)(=O)=O)cc4)cc3CC[C@@H]12` gave a melting point of 229 °C. The molecule `CC1=C2c3c(cnc4cc(Cl)ccc34)NC2CCN1` (configuration not stated) yielded a melting point of 209 to 212 °C. In the case of `COc1ccc(CCn2cc(C(=O)NCCN(C)C)c3nc4c(C)cccc4cc3c2=O)cc1OC`, the melting point lay in the range of 113 to 114 °C. `O=C(O)c1ccc2c(c1)C(=O)NC(C(Cl)(Cl)Cl)N2` (configuration not stated) had a melting point greater than 280 °C. With `CC(=O)CC(=O)N1CCc2cc(C(O)(C(F)(F)F)C(F)(F)F)ccc21`, the melting point is 150 to 151 °C. As to `O=C(c1ccccc1Nc1ccc(O)cc1)N1CCCCC1`, the melting point fell in the range of 199 to 201 °C. In turn, `CSc1ncccc1C(=O)CC(=O)C1CC1` had a melting point of 87 to 89 °C. In the case of `O=C(O)c1cc(C(c2ccccc2)(c2ccccc2)c2ccccc2)ccc1O`, the melting point lay within 234 to 237 °C.

Turning to `O=Cc1ccc2c(c1)OCC(=O)N2`, the melting point was 178 to 180 °C. As to `O=C1Cc2cc(Br)ccc2O1`, the melting point lay in the range of 147 to 148 °C. Under `CONC(=O)c1ccc(-c2ccc3nnn(Cc4ccc5ncccc5c4)c3n2)cc1F` stands 197 to 199 °C; under `COC(=O)c1c([N+](=O)[O-])cccc1S(N)(=O)=O`, 227 to 229 °C. Under `Cc1cnc(CSc2cc3ccccc3[nH]2)cc1N1CCCCC1` stands 138 to 139 °C.

`CCOC(=O)c1cn(C2CCCO2)c(=O)[nH]c1=O` (configuration not stated) had a melting point of 125 °C.

The molecule `CCCC1c2c(ccc(C(C)=O)c2O)OC1CSc1ccc(C(=O)CCC(=O)O)cc1` (configuration not stated) returned a melting point of 110 to 112 °C. On to `CC(C)CC(NC(=O)C1CCCN1)C(=O)NCC(=O)Oc1ccc([N+](=O)[O-])cc1` (stereo not drawn) (H-Pro-Leu-Gly-ONp; configuration not given here), for which the melting point was determined as 173 °C. Molecule `N#Cc1cc2ccccc2[nH]1` gave a melting point of 94 to 95 °C. In turn, `COc1ccc(N(CCCC(=O)O)C(=O)CCN(C(=O)c2ccc(Cl)cc2)c2c(C)cccc2C)cc1` had a melting point of 138 to 140 °C.
